# Laboratory results published in ChEMBL document CHEMBL3351225, “Design, synthesis, and structure-activity and structure-pharmacokinetic relationship studies of novel [6,6,5] tricyclic fused oxazolidinones leading to the discovery of a potent, selective, and orally bioavailable FXa inhibitor” (J Med Chem, 2014).
# Biological target: Coagulation factor X (Homo sapiens, UniProt P00742)
# Assay: Inhibition of human factor 10a using N-Z-D-Arg-Gly-Arg-pNA, S-2765 chromogenic substrate
# Coagulation factor X, sequence (P00742 41-179 limits assumed): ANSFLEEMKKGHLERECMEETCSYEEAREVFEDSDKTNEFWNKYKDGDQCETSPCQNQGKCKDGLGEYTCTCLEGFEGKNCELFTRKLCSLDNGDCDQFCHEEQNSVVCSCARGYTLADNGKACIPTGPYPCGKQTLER
# Coagulation factor X, sequence (P00742 235-488 limits assumed): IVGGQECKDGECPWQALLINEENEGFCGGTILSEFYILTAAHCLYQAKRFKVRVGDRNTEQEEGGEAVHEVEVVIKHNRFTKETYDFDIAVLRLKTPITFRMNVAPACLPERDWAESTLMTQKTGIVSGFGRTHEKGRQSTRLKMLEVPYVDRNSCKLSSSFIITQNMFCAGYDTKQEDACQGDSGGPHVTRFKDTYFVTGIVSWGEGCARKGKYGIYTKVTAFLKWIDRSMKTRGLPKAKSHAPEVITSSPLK
row,IC50 [nM],Structure (SMILES)
1,2210,CN1CCN(c2ccc3c(c2)OC[C@H]2[C@H](CNC(=O)c4ccc(Cl)s4)OC(=O)N32)C(=O)C1
2,1860,CO[C@H]1CCN(c2ccc3c(c2)OC[C@H]2[C@H](CNC(=O)c4ccc(Cl)s4)OC(=O)N32)C(=O)C1
3,11400,O=C(NC[C@@H]1OC(=O)N2c3ccc(N4CCN(Cc5ccccc5)CC4=O)cc3OC[C@@H]12)c1ccc(Cl)s1
4,2510,O=C(NC[C@@H]1OC(=O)N2c3ccc(N4CCC5(CC4=O)OCCO5)cc3OC[C@@H]12)c1ccc(Cl)s1
5,> 100000,O=C(Nc1ccc(Cl)cn1)[C@@H]1OC(=O)N2c3ccc(N4CCOCC4=O)cc3OC[C@@H]12
6,88.5,O=C(NC[C@@H]1OC(=O)N2c3ccc(N4CCOCC4=O)cc3OC[C@@H]12)Nc1ccc(Cl)s1
7,87.2,CC(=O)N(C)c1ccc2c(c1)OC[C@H]1[C@H](CNC(=O)c3ccc(Cl)s3)OC(=O)N21
8,4180,CS(=O)(=O)N1CCN(c2ccc3c(c2)OC[C@H]2[C@H](CNC(=O)c4ccc(Cl)s4)OC(=O)N32)C(=O)C1
9,> 100000,O=C(NC[C@@H]1OC(=O)N2c3ccc(N4CCOCC4=O)cc3OC[C@@H]12)c1sc2cc(Cl)ccc2c1Cl
10,> 100000,O=C(Nc1ccc(Cl)s1)[C@@H]1OC(=O)N2c3ccc(N4CCOCC4=O)cc3OC[C@@H]12
11,8080,O=C(NC[C@@H]1OC(=O)N2c3ccc(N4CCOCC4=O)cc3OC[C@@H]12)c1cc(Cl)c(Cl)s1
12,730,O=C(NC[C@@H]1OC(=O)N2c3ccc(N4CCOC4=O)cc3OC[C@@H]12)c1ccc(Cl)s1
13,7060,O=C(NC[C@@H]1OC(=O)N2c3ccc(N4CCOCC4=O)cc3OC[C@@H]12)c1cnc(Cl)s1
14,1750,O=C(NC[C@@H]1OC(=O)N2c3ccc(N4CCOCC4=O)cc3OC[C@@H]12)c1cc2ccc(Cl)cc2s1
15,1220,O=C(NC[C@@H]1OC(=O)N2c3ccc(N4CC[C@H](O)CC4=O)cc3OC[C@@H]12)c1ccc(Cl)s1
16,15.2,O=C(NC[C@@H]1OC(=O)N2c3ccc(N4CCCCC4=O)cc3NC[C@@H]12)c1ccc(Cl)s1

row,IC50 [nM],Structure (SMILES)
1,8180,CC(C)(C)OC(=O)N1C[C@H]2[C@H](CNC(=O)c3ccc(Cl)s3)OC(=O)N2c2ccc(N3CCCCC3=O)cc21
2,4780,COc1ccc(C(=O)NC[C@@H]2OC(=O)N3c4ccc(N5CCOCC5=O)cc4OC[C@@H]23)cc1
3,560,O=C(NC[C@@H]1OC(=O)N2c3ccc(N4CCOCC4=O)cc3OC[C@@H]12)C(=O)Nc1ccc(Cl)s1
4,57.8,O=C(NC[C@@H]1OC(=O)N2c3ccc(N4CCOCC4=O)cc3OC[C@H]12)c1ccc(Cl)s1
5,130,O=C(NC[C@@H]1OC(=O)N2c3ccc(N4CC[C@@H](O)CC4=O)cc3OC[C@@H]12)c1ccc(Cl)s1
6,1210,O=C(NC[C@@H]1OC(=O)N2c3ccc(N4CCOCC4=O)cc3OC[C@@H]12)C(=O)Nc1ccc(Cl)cn1
7,25900,O=C(NC[C@@H]1OC(=O)N2c3ccc(N4CCOCC4=O)cc3OC[C@@H]12)c1cc2cc(Cl)ccc2s1
8,40.6,O=C(NC[C@@H]1OC(=O)N2c3ccc(N4CC[C@@H](F)CC4=O)cc3OC[C@@H]12)c1ccc(Cl)s1
9,310,O=C(NC[C@@H]1OC(=O)N2c3ccc(N4CCOCC4=O)cc3OC[C@@H]12)C(=O)Nc1ccc(Cl)cc1
10,6.59,O=C(NC[C@@H]1OC(=O)N2c3ccc(N4CCCCC4=O)cc3CC[C@@H]12)c1ccc(Cl)s1
11,15800,CCN1CCN(c2ccc3c(c2)OC[C@H]2[C@H](CNC(=O)c4ccc(Cl)s4)OC(=O)N32)C(=O)C1
12,> 100000,O=C(NC[C@@H]1OC(=O)N2c3ccc(N4CCOCC4=O)cc3OC[C@@H]12)c1cc2c(Cl)cccc2s1
13,46.6,O=C(NC[C@@H]1OC(=O)N2c3ccc(N4CC[C@H](F)CC4=O)cc3OC[C@@H]12)c1ccc(Cl)s1
14,32.1,O=C(NC[C@@H]1OC(=O)N2c3ccc(N4CCOCC4=O)cc3OC[C@@H]12)Nc1ccc(Cl)cc1
15,74.8,CC(=O)N1CCN(c2ccc3c(c2)OC[C@H]2[C@H](CNC(=O)c4ccc(Cl)s4)OC(=O)N32)C(=O)C1

row,Structure (SMILES),IC50 [nM]
1,O=C(CSCCCl)NC[C@@H]1OC(=O)N2c3ccc(N4CCOCC4=O)cc3OC[C@@H]12,> 100000
